Experimental data as given in US20160256460A1, “ACTIVATORS OR STIMULATORS OF SOLUBLE GUANYLATE CYCLASE FOR USE IN TREATING CHRONIC FATIGUE SYNDROME” (BERGEN TEKNOLOGIOVERFØRING AS, priority 2013, published 2016).

Test system: ME/CFS patient
Assay: Case report: oral riociguate (Adempas) in one ME/CFS patient
Type: in vivo, human
Protocol: It is understood that the examples illustrate the invention further without limiting the same. The patient is a person. They have had ME/CFS for 10 years, starting after a Giardia Lamblia infection. They have a disease severity varying between moderate and mild, but with moderate severity the last month prior to start of Riociguat. They have a typical ME/CFS and fulfils Canadian criteria. […] They started with only 0.5 mg once daily, gradually increasing to 0.5 two times daily after a few days and again to 0.5 mg three times daily on day six. […] The dose was increased to 1 mg+0.5 mg+1 mg starting from day seven and, in addition, starting from day nine increased to 1 mg three times daily. […] They told the clinicians of the improvement of their ME/CFS symptoms. They experienced this improvement to be significant and not within the usual range of symptom variation of their ME/CFS disease the last months.

SMILES: COC(=O)N(C)c1c(N)nc(-c2nn(Cc3ccccc3F)c3ncccc23)nc1N [Riociguat, Methyl 4,6-diamino-2-[1-(2-fluorobenzyl)-1H-pyrazolo[3,4-b]pyridine-3-yl]-5-pyrimidinyl(methyl)carbamate]
- ME/CFS symptom change reported by the patient (after the first six days, at a dose of 2.5 mg per day): more energy and less fatigue, less brain fog with an improved concentration ability, less hypersensitivity to sound and light, and less feeling of sore throat
- benefit on the ME/CFS symptoms (person, moderate ME/CFS, oral 0.5 mg once daily increased to 0.5 mg three times daily on day six, noticed from day six, the next three days): benefit on the ME/CFS symptoms
- side effects (same patient, dose increased up to 1 mg three times daily from day nine): no clear side effects
